Experimental data from patent US20230026611A1, “ARYL HETEROCYCLIC COMPOUNDS AS Kv1.3 POTASSIUM SHAKER CHANNEL BLOCKERS” (D. E. Shaw Research, LLC, priority 2019, published 2023).

How the values were obtained:
[1] = target: T1, Kv1.3 potassium channel (Homo sapiens, UniProt P22001); experiment: Kv1.3 potassium channel blocker activity, automated whole-cell patch clamp (Patchliner) in CHO-K1 cells stably expressing Kv1.3; format: cell-based; conditions: CHO-K1 cells stably expressing Kv1.3; patch clamp, current inhibition; read-out: Kv1.3 IC50
T1 construct: expressed in transfected cells
T1 sequence (P22001 whole entry): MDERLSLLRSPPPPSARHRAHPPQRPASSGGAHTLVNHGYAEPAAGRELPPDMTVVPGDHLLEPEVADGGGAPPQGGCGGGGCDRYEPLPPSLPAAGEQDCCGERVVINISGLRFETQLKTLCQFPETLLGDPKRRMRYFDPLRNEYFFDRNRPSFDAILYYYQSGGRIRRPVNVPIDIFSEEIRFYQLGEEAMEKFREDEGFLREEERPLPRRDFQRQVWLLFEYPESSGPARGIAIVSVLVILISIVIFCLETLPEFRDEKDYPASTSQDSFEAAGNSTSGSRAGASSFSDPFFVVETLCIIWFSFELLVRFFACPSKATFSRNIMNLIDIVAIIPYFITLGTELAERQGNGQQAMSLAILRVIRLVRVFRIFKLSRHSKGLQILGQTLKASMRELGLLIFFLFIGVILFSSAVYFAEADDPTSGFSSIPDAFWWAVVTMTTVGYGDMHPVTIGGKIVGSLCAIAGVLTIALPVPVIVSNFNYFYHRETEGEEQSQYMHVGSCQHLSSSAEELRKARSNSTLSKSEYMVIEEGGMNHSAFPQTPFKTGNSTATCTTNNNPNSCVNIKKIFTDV
Method in brief: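 CHO-K1 cells stably expressing Kv1.3 were recorded by whole-cell patch clamp, with 100 ms depolarizing pulses from −90 mV holding to +40 mV at 0.1 Hz and 10-second breaks between pulse trains. P/4 online leak subtraction was applied. Compound incubation before the next train was ≤10 seconds, and peak current inhibition was read during equilibration.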

[2] = target: hERG channel (Homo sapiens, UniProt Q12809); experiment: hERG electrophysiology, automated whole-cell patch clamp (Patchliner) in CHO-K1 cells stably expressing hERG
Chain of hERG channel (Q12809 whole entry): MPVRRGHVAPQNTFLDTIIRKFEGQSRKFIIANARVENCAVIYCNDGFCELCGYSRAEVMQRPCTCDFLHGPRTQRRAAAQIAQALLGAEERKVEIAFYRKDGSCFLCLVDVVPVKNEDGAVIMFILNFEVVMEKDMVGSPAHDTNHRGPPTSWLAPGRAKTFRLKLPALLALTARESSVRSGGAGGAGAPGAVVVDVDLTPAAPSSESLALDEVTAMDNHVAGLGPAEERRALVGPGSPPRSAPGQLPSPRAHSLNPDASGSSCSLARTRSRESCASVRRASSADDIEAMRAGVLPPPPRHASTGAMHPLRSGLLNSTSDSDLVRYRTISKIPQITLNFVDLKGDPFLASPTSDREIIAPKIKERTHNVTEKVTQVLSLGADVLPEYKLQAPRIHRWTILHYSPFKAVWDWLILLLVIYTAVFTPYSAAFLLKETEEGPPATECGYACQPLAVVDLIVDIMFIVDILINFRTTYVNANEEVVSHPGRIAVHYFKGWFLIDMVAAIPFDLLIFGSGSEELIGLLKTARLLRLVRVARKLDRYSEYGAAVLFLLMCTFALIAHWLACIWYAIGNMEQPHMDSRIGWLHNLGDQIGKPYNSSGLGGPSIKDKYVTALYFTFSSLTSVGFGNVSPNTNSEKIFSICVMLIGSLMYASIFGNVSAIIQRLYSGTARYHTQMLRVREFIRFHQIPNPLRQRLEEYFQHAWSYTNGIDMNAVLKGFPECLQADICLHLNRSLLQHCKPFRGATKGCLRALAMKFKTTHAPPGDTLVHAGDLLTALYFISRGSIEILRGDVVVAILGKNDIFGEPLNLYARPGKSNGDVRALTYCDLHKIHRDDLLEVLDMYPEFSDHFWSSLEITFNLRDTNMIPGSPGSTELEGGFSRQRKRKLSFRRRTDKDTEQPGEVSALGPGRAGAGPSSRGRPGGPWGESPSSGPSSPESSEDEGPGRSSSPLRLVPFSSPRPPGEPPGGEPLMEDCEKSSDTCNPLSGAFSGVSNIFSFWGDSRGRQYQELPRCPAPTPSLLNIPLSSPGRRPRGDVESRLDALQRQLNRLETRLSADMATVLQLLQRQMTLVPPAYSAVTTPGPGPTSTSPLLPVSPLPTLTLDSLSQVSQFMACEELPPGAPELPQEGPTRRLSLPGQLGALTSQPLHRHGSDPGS
Procedure: Evaluation of hERG Activities
This assay is used to evaluate the disclosed compounds's inhibition activities against the hERG channel.
CHO-K1 cells stably expressing hERG were grown in Ham's F-12 Medium with glutamine containing 10% heat-inactivated FBS, 1% penicillin/streptomycin, hygromycin (100 μg/ml) and G418 (100 μg/ml). Cells were grown in culture flasks at 37° C. in a 5% CO2-humidified incubator.
The cells were bathed in an extracellular solution containing 140 mM NaCl, 4 mM KCl, 2 mM CaCl2), 1 mM MgCl2, 5 mM Glucose, 10 mM HEPES; pH adjusted to 7.4 with NaOH; 295-305 mOsm. The internal solution contained 50 mM KCl, 10 mM NaCl, 60 mM KF, 20 mM EGTA, 10 mM HEPES; pH adjusted to 7.2 with KOH; 285 mOsm. All compounds were dissolved in DMSO at 30 mM. Compound stock solutions were freshly diluted with external solution to concentrations of 30 nM, 100 nM, 300 nM, 1 μM, 3 μM, 10 μM, 30 μM and 100 μM. The highest content of DMSO (0.3%) was present in 100 μM.
The voltage protocol (see Table B) was designed to simulate voltage changes during a cardiac action potential with a 300 ms depolarization to +20 mV (analogous to the plateau phase of the cardiac action potential), a repolarization for 300 ms to −50 mV (inducing a tail current) and a final step to the holding potential of −80 mV. The pulse frequency was 0.3 Hz. Control (compound-free) and compound pulse trains for each compound concentration applied contained 70 pulses.
Whole-cell current recordings and compound application were enabled by means of an automated patch clamp platform Patchliner (Nanion). EPC 10 patch clamp amplifier (HEKA) along with Patchmaster software (HEKA Elektronik Dr. Schulze GmbH) was used for data acquisition. Data were sampled at 10 kHz without filtering. Increasing compound concentrations were applied consecutively to the same cell without washouts in between.
AUC and PEAK values were obtained with Patchmaster (HEKA Elektronik Dr. Schulze GmbH). To determine IC50 the last single pulse in the pulse train corresponding to a given compound concentration was used. Obtained AUC and PEAK values in the presence of compound were normalized to control values in the absence of compound. Using Origin (OridinLab), IC50 was derived from data fit to Hill equation: Icompound/control=(100−A)/(1+([compound]/IC50)nH)+A, where IC50 is the concentration at which current inhibition is half-maximal, [compound] is the applied compound concentration, A is the fraction of current that is not blocked and nH is the Hill coefficient.

SMILES	IC50 [1] [µM]	IC50 [2] [µM]
O=C(CO)N1CCC(c2c(O)cc(Cl)c(Cl)c2Cl)CC1 [Compound 93, 2-hydroxy-1-[4-(2,3,4-trichloro-6-hydroxyphenyl)piperidin-1-yl]ethan-1-one]	< 1	< 30
O=S(=O)(NCC1CC(c2c(O)ccc(Cl)c2Cl)CCN1)c1ccccc1 [Compound 94, N-(2R,4S)-rel-[[4-(2,3-dichloro-6-hydroxyphenyl)piperidin-2-yl]methyl]benzenesulfonamide]	< 1	< 30
NCC(=O)N1CCC(c2c(O)cc(Cl)c(Cl)c2Cl)CC1 [Compound 98, 2-amino-1-[4-(2,3,4-trichloro-6-hydroxyphenyl)piperidin-1-yl]ethan-1-one]	< 1	< 30
Nc1nnc(C2CC(c3c(O)ccc(Cl)c3Cl)CCN2)o1 [Compound 99, (2R,4S)-rel-2-(2-(5-amino-1,3,4-oxadiazol-2-yl)piperidin-4-yl)-3,4-dichlorophenol]	< 1	> 30
CS(=O)(=O)NCC1CC(c2c(O)ccc(Cl)c2Cl)CCN1 [Compound 100, (2R,4S)-rel-N-[[4-(2,3-dichloro-6-hydroxyphenyl)piperidin-2-yl]methyl]methanesulfonamide]	< 1	> 30
NC(=O)CC1CC(c2c(O)ccc(Cl)c2Cl)CCN1 [Compound 101, 2-[(2R,4S)-rel-4-(2,3-dichloro-6-hydroxyphenyl)piperidin-2-yl]acetamide]	< 1	> 30
NC(=O)NCC1CC(c2c(O)ccc(Cl)c2Cl)CCN1 [Compound 102, (2R,4S)-rel-[4-(2,3-dichloro-6-hydroxyphenyl)piperidin-2-yl]methylurea]	< 1	> 30
O=C(NCC1CC(c2c(O)ccc(Cl)c2Cl)CCN1)C1COC1 [Compound 104, (2R,4S)-rel-N-[[4-(2,3-dichloro-6-hydroxyphenyl)piperidin-2-yl]methyl]oxetane-3-carboxamide]	< 1	> 30
O=C(NCC1CC(c2c(O)ccc(Cl)c2Cl)CCN1)C1CC1 [Compound 106, (2R,4S)-rel-N-[[4-(2,3-dichloro-6-hydroxyphenyl)piperidin-2-yl]methyl]cyclopropane carboxamide]	< 1	> 30
O=S1(=O)CCCN1CC1CC(c2c(O)ccc(Cl)c2Cl)CCN1 (stereo not shown) [Compound 112, 2-[[4-(2,3-dichloro-6-hydroxyphenyl)piperidin-2-yl]methyl]-1,2-thiazolidine-1,1-dione]	< 1	< 30
Oc1ccc(Cl)c(Cl)c1C1CCNC(c2cn[nH]c2)C1 (stereo not shown) [Compound 116, 3,4-dichloro-2-[2-(1H-pyrazol-4-yl)piperidin-4-yl]phenol]	< 1	> 30
O=C(NC1CNC1)C1CCC(c2c(O)ccc(Cl)c2Cl)NC1 (stereo not shown) [Compound 125, N-(azetidin-3-yl)-6-(2,3-dichloro-6-hydroxyphenyl)piperidine-3-carboxamide]	< 10	> 100
O=C(NC1CNC1)C1CCNC(c2c(O)ccc(Cl)c2Cl)C1 (stereo not shown) [Compound 126, N-(azetidin-3-yl)-2-(2,3-dichloro-6-hydroxyphenyl)piperidine-4-carboxamide]	< 10	> 30
O=C(NC1CNC1)C1CCCC(c2c(O)ccc(Cl)c2Cl)N1 (stereo not shown) [Compound 127, N-(azetidin-3-yl)-6-(2,3-dichloro-6-hydroxyphenyl)piperidine-2-carboxamide]	< 10	> 30
